Laboratory results published in patent publication US20040151698A1, “Microbial pesticide active against plant fungal pathogens and process for preparation thereof” (priority 2000, published 2004).
Values joined by “and” are separate entries in the source; they are usually repeats but may differ in a detail not shown here. Equal values may be shown once.

Key:
A. solani = assay: Field test against early blight in potato; assay type: in vivo, Alternaria solani; settings: sprayed at a usual concentration; for Morbidity (%) Avg.: average of 3 repeats
Procedure: (§1) Greenhouse and field tests of the fungicidal activity of the antagonistic microbe against various pathogenic fungi are conduced. For this, tomatoes are cultivated both in a greenhouse and a field. The tomatoes cultivated in a greenhouse and a field are treated with the spore suspension of the novel antagonistic microbe of the present invention and then exposed to pathogenic fungi, B. cinerea causing gray mold rot, C. fulvum causing leaf mold, and A. solani causing early blight, separately. The experiment is performed according to a randomized block design with three repeat measures. For comparison, procymidone for use in the control of gray mold rot, propineb for use in the control of leaf mold, and azoxystrobin for use in the control of early blight are employed. Morbidity is determined by examining the infection of all tomatoes one by one or by a sampling method. A significance test is carried out according to Duncan's multiple range test (DMRT).
To determine the fungicidal activity of the antagonistic microbe of the present invention against A. solani causing early blight, tomato was cultivated in a field. The cultivation was performed in the following schedule;
June 10 1st Treatment with the antagonistic microbe (spray amount 300 L/10 a)
July 5 2nd Treatment with the antagonistic microbe (spray amount 300 L/10 a)
July 13 Measuring mobidity
The experiment was performed in a randomized block design with three repeat measures. For comparison, azoxystrobin was sprayed as a control at a usual concentration. Morbidity was determined by examining the infection of 20 stocks of potatoes per repeat measure and attack frequency was calculated as in Experimental Example 4-2.

B. cinerea = assay: Greenhouse test against tomato gray mold rot; assay type: in vivo, Botrytis cinerea; settings: sprayed at a usual concentration
Procedure: as §1
To determine the fungicidal activity of the antagonistic microbe of the present invention against B. cinerea causing gray mold rot, tomato plants were cultivated in a greenhouse with a dimension of 23.7 m in length, 7.0 m in width and 2.3 m in height. The cultivation was performed according to the following schedule;
February 11 1st Treatment with the antagonistic microbe (spray amount 300 L/10 a)
February 20 2nd Treatment with the antagonistic microbe (spray amount 300 L/10 a)
March 2 3rd Treatment with the antagonistic microbe (spray amount 330 L/10 a)
March 22 Measuring mobidity
The tomato plants treated with the antagonistic microbe occupied an area of 5.4 m2 and the experiment was performed in triplicate in a randomized block design. For comparison, Procymidone was sprayed as a control at a usual concentration. The spore suspension of the antagonistic microbe prepared in Example 2 was added directly to water to bring about 500- and 1,000-fold dilutions of the population. Morbidity was determined by examining the infection of all tomato plants one by one. A significance test was performed according to Duncan's multiple range test (DMRT).

C. fulvum = assay: Greenhouse test against leaf mold in tomato; assay type: in vivo, Cladosporium fulvum; settings: sprayed at a usual concentration; for Morbidity (%) Avg.: average of 3 repeats
Procedure: as §1
To determine the fungicidal activity of the antagonistic microbe of the present invention against C. fulvum causing leaf mold, tomato plants were cultivated in the same manner as in Experimental Example 4-1 in a greenhouse with a dimension of 23.7 m in length, 7.0 m in width and 2.3 m in height. The experiment was performed in triplicate in a randomized block design. For comparison, propineb was sprayed as a control at a usual concentration. Morbidity was determined by examining the infection of 20 stalks of tomatoes per repeat measure and attack frequency was calculated according to the following equation: [formula]
wherein the factor is set to be: 0 when no leaves are infected; 1 when one forth of the total leaves are infected; 2 when half of the total leaves are infected and some of them are withered; 3 when three fourths of the total leaves are infected and half of them are withered; and 4 when two thirds are withered to death.

## CO/C=C(/C(=O)OC)c1ccccc1Oc1cc(Oc2ccccc2C#N)ncn1 [Azoxytrobin, azoxystrobin]
A. solani
  Control value(%): 57.6%
  Morbidity (%) Avg.: 9.2 A %
A. solani; listed as azoxystrobin
  Morbidity (%) Avg.: 9.2%
A. solani; repeat 1
  Morbidity (%) 1: 9.3%
A. solani; repeat 2
  Morbidity (%) 2: 10.2%
A. solani; repeat 3
  Morbidity (%) 3: 8.2%

## CC12CC1(C)C(=O)N(c1cc(Cl)cc(Cl)c1)C2=O (centres unmarked) [Procymidone]
B. cinerea
  Control value(%): 40.2%
B. cinerea; average of 3 repeats
  Morbidity (%) Avg.: 10.4% and 10.4 B %
B. cinerea; repeat 1
  Morbidity (%) 1: 12.3%
B. cinerea; repeat 2
  Morbidity (%) 2: 10.6%
B. cinerea; repeat 3
  Morbidity (%) 3: 8.2%

## propineb
C. fulvum
  Control value(%): 42.9%
  Morbidity (%) Avg.: 12.0 B %
C. fulvum; listed as propineb
  Morbidity (%) Avg.: 21.9%
C. fulvum; repeat 1
  Morbidity (%) 1: 10.3%
C. fulvum; repeat 2
  Morbidity (%) 2: 11.2%
C. fulvum; repeat 3
  Morbidity (%) 3: 14.5%
